Values after ≈ are worked out from the molar mass of the structure shown. Read-outs that look alike come from different tables or passages of the source.
Legend:
[1] = tested on: Mycobacterium tuberculosis H37Rv CNCTC My 331/88 (ATCC 27294); assay: Antimycobacterial microdilution MABA, M. tuberculosis; assay type: cell-based; conditions: for MIC: Mycobacterium tuberculosis, read-out: Mtb H37Rv ATCC 27294 MIC, Middlebrook 7H9 with OADC growth supplement, pH = 6.6, MABA
Candida glabrata 20/I = assay: Antifungal microdilution broth, CG; assay type: cell-based; conditions: Nakaseomyces glabratus, 20/I, read-out: MIC CG
[2] = tested on: Pseudomonas aeruginosa CCM 1961; assay: Antibacterial microdilution broth, PA; assay type: cell-based; conditions: Pseudomonas aeruginosa, read-out: MIC PA
[3] = tested on: Aspergillus fumigatus 231; assay: Antifungal microdilution broth, AF; assay type: cell-based; conditions: read-out: MIC AF
[4] = tested on: Lichtheimia corymbifera 272; assay: Antifungal microdilution broth, LC; assay type: cell-based; conditions: read-out: MIC LC
[5] = tested on: M. avium ssp. avium CNCTC My 80/72 (ATCC 15769); assay: Antimycobacterial microdilution MABA, M. avium; assay type: cell-based, Mycobacterium avium; conditions: for MIC: Mycobacterium avium, ATCC15769, pH 6.6, read-out: M. avium ATCC 15769 MIC; for M. avium ATCC 15769 MIC: Middlebrook 7H9 with OADC, pH 6.6, MABA
Candida tropicalis 156 = assay: Antifungal microdilution broth, CT; assay type: cell-based; conditions: read-out: MIC CT
[6] = tested on: Staphylococcus epidermidis H 6966/08; assay: Antibacterial microdilution broth, SE; assay type: cell-based; conditions: Staphylococcus epidermidis, read-out: MIC SE
[7] = tested on: Enterococcus sp. J 14365/08; assay: Antibacterial microdilution broth, EF; assay type: cell-based; conditions: Enterococcus, read-out: MIC EF
[8] = tested on: M. kansasii CNCTC My 235/80 (ATCC 12478); assay: Antimycobacterial microdilution MABA, M. kansasii; assay type: cell-based, Mycobacterium kansasii; conditions: for MIC: Mycobacterium kansasii, ATCC12478, pH 6.6, read-out: M. kans. ATCC 12478 MIC, Middlebrook 7H9 with OADC, pH 6.6, MABA
[9] = tested on: Candida albicans ATCC 44859; assay: Antifungal microdilution broth, CA; assay type: cell-based; conditions: Candida albicans, read-out: MIC CA
[10] = tested on: Trichophyton interdigitale 445; assay: Antifungal microdilution broth, TI; assay type: cell-based; conditions: read-out: MIC TI
Candida krusei E28 = assay: Antifungal microdilution broth, CK; assay type: cell-based; conditions: Pichia kudriavzevii, read-out: MIC CK
[11] = tested on: Staphylococcus aureus CCM 4516/08; assay: Antibacterial microdilution broth, SA; assay type: cell-based; conditions: Staphylococcus aureus
[12] = tested on: Escherichia coli CCM 4517; assay: Antibacterial microdilution broth, EC; assay type: cell-based; conditions: Escherichia coli, read-out: MIC EC
[13] = tested on: Mycobacterium smegmatis CCM 4622 (ATCC 607); assay: Antimycobacterial microdilution, M. smegmatis; assay type: cell-based; conditions: Mycolicibacterium smegmatis, read-out: M. smeg. ATCC 607 MIC
[14] = tested on: Staphylococcus aureus H 5996/08 methicillin resistant; assay: microbe, parasite or virus in culture; assay type: cell-based; conditions: Staphylococcus aureus, MRSA, read-out: MIC MRSA
Trichosporon asahii 1188 = assay: Antifungal microdilution broth, TA; assay type: cell-based; conditions: read-out: MIC TA
[15] = Aspergillus fumigatus, 231, 24 h
[16] = Aspergillus fumigatus, 231, 48 h
[17] = Lichtheimia corymbifera, 272, 24 h
[18] = Lichtheimia corymbifera, 272, 48 h
[19] = Trichophyton interdigitale, 445, 72 h
[20] = Trichophyton interdigitale, 445, 120 h
[21] = CCM4516, 24 h, read-out: MIC SA, 24 h
[22] = CCM4516, 48 h, read-out: MIC SA, 48 h
[23] = Trichosporon asahii, 1188, 24 h
[24] = Trichosporon asahii, 1188, 48 h

Structure (SMILES) | melting point [°C] | MIC [1] [µg/mL] | MIC (Candida glabrata 20/I; 24 h) [µM] | MIC (Candida glabrata 20/I; 48 h) [µM] | MIC ([2]; CCM1961, 72 h) [µM] | MIC ([2]; CCM1961, 120 h) [µM] | MIC [3, 15] [µM] | MIC [3, 16] [µM] | MIC [4, 17] [µM] | MIC [4, 18] [µM] | MIC [5] [µg/mL] | MIC (Candida tropicalis 156; Candida tropicalis, 156, 24 h) [µM] | MIC (Candida tropicalis 156; Candida tropicalis, 156, 48 h) [µM] | MIC ([6]; H6966/08, 24 h) [µM] | MIC ([6]; H6966/08, 48 h) [µM] | MIC ([7]; SP.J14365/08, 24 h) [µM] | MIC ([7]; SP.J14365/08, 48 h) [µM] | MIC [8] [µg/mL] | MIC ([9]; ATCC44859, 24 h) [µM] | MIC ([9]; ATCC44859, 48 h) [µM] | other results
O=C(Nc1cnccn1)c1cccc(O)c1 [Compound 1c] | 192.2 to 193.7 | > 100 | > 500 | > 500 | > 500 | > 500 | > 500 | > 500 | > 500 | > 500 | > 100 | > 500 | > 500 | > 500 | > 500 | > 500 | > 500 | > 100 | > 500 | > 500 | MIC [10, 19]: > 500 µM; MIC [10, 20]: > 500 µM; MIC (Candida krusei E28; E28, 24 h): > 500 µM; MIC (Candida krusei E28; E28, 48 h): > 500 µM; MIC [11, 21]: > 500 µM; MIC [11, 22]: > 500 µM; MIC ([12]; CCM4517, 24 h): > 500 µM; MIC ([12]; CCM4517, 48 h): > 500 µM; MIC [13]: ≥ 500 µg/mL; MIC ([14]; 24 h): > 500 µM; MIC ([14]; 48 h): > 500 µM; MIC (Trichosporon asahii 1188; [23]): > 500 µM; MIC (Trichosporon asahii 1188; [24]): > 500 µM
CC(=O)Oc1ccc(C(=O)Nc2cnccn2)cc1 [Compound 1d-Ac] | 147.4 to 149.4 | > 100 | > 500 | > 500 | > 500 | > 500 | > 500 | > 500 | > 500 | > 500 | > 100 | > 500 | > 500 | > 500 | > 500 | > 500 | > 500 | > 100 | > 500 | > 500 | MIC [10, 19]: > 500 µM; MIC [10, 20]: > 500 µM; MIC (Candida krusei E28; E28, 24 h): > 500 µM; MIC (Candida krusei E28; E28, 48 h): > 500 µM; MIC [11, 21]: > 500 µM; MIC [11, 22]: > 500 µM; MIC ([12]; CCM4517, 24 h): > 500 µM; MIC ([12]; CCM4517, 48 h): > 500 µM; MIC [13]: ≥ 500 µg/mL; MIC ([14]; 24 h): > 500 µM; MIC ([14]; 48 h): > 500 µM; MIC (Trichosporon asahii 1188; [23]): > 500 µM; MIC (Trichosporon asahii 1188; [24]): > 500 µM
COc1ccccc1C(=O)Nc1cnccn1 [Compound 1e] | 100.3 to 102.4 | > 100 | > 500 | > 500 | > 500 | > 500 | > 500 | > 500 | > 500 | > 500 | > 100 | > 500 | > 500 | > 500 | > 500 | > 500 | > 500 | 100 (≈ 436 µM) | > 500 | > 500 | Mtb H37Rv ATCC 27294 MIC ([1]; Middlebrook 7H9 with OADC growth supplement, pH = 6.6, MABA): >100 µg/mL; M. avium ATCC 15769 MIC [5]: >100 µg/mL; MIC [10, 19]: > 500 µM; MIC [10, 20]: > 500 µM; MIC (Candida krusei E28; E28, 24 h): > 500 µM; MIC (Candida krusei E28; E28, 48 h): > 500 µM; MIC [11, 21]: > 500 µM; MIC [11, 22]: > 500 µM; MIC ([12]; CCM4517, 24 h): > 500 µM; MIC ([12]; CCM4517, 48 h): > 500 µM; MIC [13]: 125 µg/mL (≈ 545 µM); MIC ([14]; 24 h): > 500 µM; MIC ([14]; 48 h): > 500 µM; MIC (Trichosporon asahii 1188; [23]): > 500 µM; MIC (Trichosporon asahii 1188; [24]): > 500 µM
COc1ccc(C(=O)Nc2cnccn2)cc1 [Compound 1g] | 156 to 156.6 | 25 (≈ 109 µM) | > 500 | > 500 | > 500 | > 500 | > 500 | > 500 | > 500 | > 500 | > 100 | > 500 | > 500 | > 500 | > 500 | > 500 | > 500 | > 100 | > 500 | > 500 | M. avium ATCC 15769 MIC [5]: >100 µg/mL; M. kans. ATCC 12478 MIC ([8]; Middlebrook 7H9 with OADC, pH 6.6, MABA): >100 µg/mL; MIC [10, 19]: > 500 µM; MIC [10, 20]: > 500 µM; MIC (Candida krusei E28; E28, 24 h): > 500 µM; MIC (Candida krusei E28; E28, 48 h): > 500 µM; MIC [11, 21]: > 500 µM; MIC [11, 22]: > 500 µM; MIC ([12]; CCM4517, 24 h): > 500 µM; MIC ([12]; CCM4517, 48 h): > 500 µM; MIC [13]: ≥ 500 µg/mL; MIC ([14]; 24 h): > 500 µM; MIC ([14]; 48 h): > 500 µM; MIC (Trichosporon asahii 1188; [23]): > 500 µM; MIC (Trichosporon asahii 1188; [24]): > 500 µM
